Experimental data as given in the CombiSolv-Exp solvation set (Vermeire and Green 2021).

Test: solvent given as SMILES

CCC1CCCCC1
Conditions | solvation free energy, 298 K [kcal/mol]
in Brc1ccccc1 | -5.2
in C1CCCCC1 | -5.59
in C1CCOC1 | -5.38
in C1COCCO1 | -4.67
in C=CCCCC | -5.39
in C=CCCCCCC | -5.34
in C=CCCCCCCCC | -5.3
in CC1COC(=O)O1 | -3.41
in CC#N | -3.87
in CC(=O)N(C)C | -4.21
in CC(=O)O | -4.16
in CC(=O)c1ccccc1 | -4.54
in CC(C)=O | -4.54
in CC(C)CC(C)(C)C | -5.28
in CC(C)CCCC(C)CCCC(C)CCCCC(C)CCCC(C)CCCC(C)C | -4.99
in CC(C)CCO | -4.74
in CC(C)O | -4.53
in CC(C)OC(C)C | -5.26
in CCBr | -5.53
in CCC#N | -4.51
in CCC(C)=O | -4.81
in CCCC#N | -4.46
in CCCC(=O)OCC | -5.04
in CCCC(C)=O | -4.91
in CCCCC | -5.41
in CCCCCC | -5.42
in CCCCCC(C)=O | -4.96
in CCCCCCC | -5.39
in CCCCCCCC | -5.38
in CCCCCCCCC | -5.31
in CCCCCCCCC=CCCCCCCCC(=O)OCC(COC(=O)CCCCCCCC=CCCCCCCCC)OC(=O)CCCCCCCC=CCCCCCCCC | -5.07
in CCCCCCCCCC | -5.28
in CCCCCCCCCCCC | -5.21
in CCCCCCCCCCCCCCCC | -5.15
in CCCCCCCCO | -4.84
in CCCCCCOC(C)=O | -5.05
in CCCCO | -4.69
in CCCCOC(=O)c1ccccc1C(=O)OCCCC | -4.8
in CCCCOC(C)=O | -4.99
in CCCCOCCCC | -5.24
in CCCO | -4.55
in CCN(CC)CC | -5.43
in CCO | -4.47
in CCOC(=O)c1ccccc1C(=O)OCC | -4.24
in CCOC(C)=O | -4.83
in CCOCC | -5.33
in CCOCCOCCOCC | -4.82
in CCOc1ccccc1 | -4.96
in CN1CCCC1=O | -4.2
in CN(C)C=O | -4.06
in CN(C)P(=O)(N(C)C)N(C)C | -4.49
in CNC=O | -3.73
in CO | -4.05
in COC(C)=O | -4.62
in COCCO | -4.06
in COc1ccccc1 | -4.91
in CS(C)=O | -3.28
in Cc1ccc(C)cc1 | -5.35
in Cc1ccccc1 | -5.37
in Cc1ccccn1 | -5
in ClC(Cl)(Cl)Cl | -5.58
in ClC(Cl)Cl | -5.46
in ClCCCl | -4.91
in ClCCl | -5.2
in Clc1ccccc1 | -5.37
in FC(F)(F)C(F)(F)C(F)(F)C(F)(F)C(F)(F)C(F)(F)C(F)(F)C(F)(F)F | -3.5
in FC(F)(F)C(F)(F)C(F)(F)C(F)(F)C(F)(F)C(F)(F)F | -3.53
in Fc1ccccc1 | -5.22
in ICI | -3.85
in N#Cc1ccccc1 | -4.57
in NC=O | -1.81
in Nc1ccccc1 | -3.93
in O | 2.14
in O=C1CCCCC1 | -4.85
in O=C1CCCO1 | -3.62
in O=CN1CCOCC1 | -3.52
in O=Cc1ccco1 | -3.95
in OCCCCCO | -3.47
in OCCCCO | -3.26
in OCCCO | -2.9
in OCCO | -2.11
in OCCOCCO | -2.81
in OCCOCCOCCO | -3.01
in OCc1ccccc1 | -4.14
in S=C=S | -5.65
in c1ccccc1 | -5.35
in c1ccncc1 | -4.73

CCCc1ccccc1
Conditions | solvation free energy, 298 K [kcal/mol]
in C1CCOC1 | -6.63
in CC#N | -5.61
in CC(C)CC(C)(C)C | -5.89
in CC(C)O | -5.41
in CCCCCC | -5.55
in CCCCCCC | -5.92
in CCCCCCCCCC | -5.23
in CCCCCCCCCCCCCCCC | -5.76
in CCCCCCCCO | -5.58
in CO | -5.31
in NC=O | -3.49
in O | -0.56
in OCCO | -3.65
in OCCOCCO | -4.55
in OCCOCCOCCO | -4.69

CC(C)O
Conditions | solvation free energy, 298 K [kcal/mol]
in C1CCOC1 | -4.75
in C1COCCO1 | -4.37
in CC#N | -4.42
in CC(=O)CC(C)=O | -4.41
in CC(=O)N(C)C | -5.29
in CC(C)(C)O | -5.02
in CC(C)CC(C)(C)C | -2.9
in CC(C)CCCC(C)CCCC(C)CCCCC(C)CCCC(C)CCCC(C)C | -2.29
in CC(Cl)(Cl)Cl | -4.07
in CCC(C)=O | -4.54
in CCCC(C)O | -4.85
in CCCCCC | -2.76
in CCCCCCC | -2.71
in CCCCCCCCCCCCCCCC | -2.37
in CCCCCCCCCCO | -4.49
in CCCCCCCCO | -4.61
in CCCCCO | -4.99
in CCCCN(C=O)CCCC | -4.71
in CCCCO | -5.02
in CCCO | -5.07
in CCCOCCC | -3.74
in CCN(CC)C(C)=O | -5.2
in CCNC(C)=O | -5.09
in CCNC=O | -5.03
in CCO | -5.27
in CCOC(=O)c1ccccc1C(=O)OCC | -3.75
in CCOC(C)=O | -4.13
in CCOCCO | -4.87
in CCOP(=O)(OCC)OCC | -4.97
in CN1CCCC1=O | -5.12
in CN1CCN(C)C1=O | -5.1
in CNC(C)=O | -5.12
in CO | -5.53
in COC(C)(C)C | -4.22
in COC(C)=O | -4.46
in Cc1ccc(C)cc1 | -3.39
in Cc1cccc(C)c1 | -3.33
in O | -4.76
in O=CN1CCOCC1 | -4.53
in OCCOCCO | -4.77
in [2H]O[2H] | -4.86

CCCCCCO[N+](=O)[O-]
Conditions | solvation free energy, 298 K [kcal/mol]
in O | -1.66

O=c1cc(Cl)[nH]c(=O)[nH]1
Conditions | solvation free energy, 298 K [kcal/mol]
in O | -15.8

CCCCC(CC)CO (configuration not stated)
Conditions | solvation free energy, 298 K [kcal/mol]
in O | -3.96

CC1=CCCCC1
Conditions | solvation free energy, 298 K [kcal/mol]
in O | 0.66

CCSC
Conditions | solvation free energy, 298 K [kcal/mol]
in O | -1.5

CCCN(CCC)N=O
Conditions | solvation free energy, 298 K [kcal/mol]
in CC(C)CC(C)(C)C | -6.56

O=C=S
Conditions | solvation free energy, 298 K [kcal/mol]
in CC1COC(=O)O1 | -1.15
in CN1CCCC1=O | -1.41
in COCCOCCOCCOCCOC | -1.41
in O | 0.41

Ic1ccccc1
Conditions | solvation free energy, 298 K [kcal/mol]
in C1CCOC1 | -7.38
in C1COCCO1 | -7.22
in CCCCCCC | -6.27
in CCCCCCCCCCCCCCCC | -6.11
in CN(C)C=O | -7.09
in ClC(Cl)(Cl)Cl | -6.81
in N#Cc1ccccc1 | -6.98
in O | -1.75
in OCCO | -5.28

Nc1ccc2ccccc2c1
Conditions | solvation free energy, 298 K [kcal/mol]
in CCCCCC | -8.89
in CCCCCCCC | -8.96
in O | -7.47

N#CCc1ccc(C(=O)O)cc1
Conditions | solvation free energy, 298 K [kcal/mol]
in C=CCCCCCCCCCCCCCC | -10.2
in O | -12.9

COc1cc(C=O)c(Cl)c(OC)c1O
Conditions | solvation free energy, 298 K [kcal/mol]
in O | -7.78

COc1ccccc1O
Conditions | solvation free energy, 298 K [kcal/mol]
in O | -5.67

NC=O
Conditions | solvation free energy, 298 K [kcal/mol]
in CC(C)c1ccccc1 | -4.1
in CCc1ccccc1 | -4.58
in O | -10.2

CC(C)C(=O)C(C)C
Conditions | solvation free energy, 298 K [kcal/mol]
in O | -2.56

CC1=CCCC(C)=CCC(C)(C)C=CC1
Conditions | solvation free energy, 298 K [kcal/mol]
in O | 0.05

CCNc1nc(Cl)nc(NC(C)(C)C#N)n1
Conditions | solvation free energy, 298 K [kcal/mol]
in O | -13.2

FCCF
Conditions | solvation free energy, 298 K [kcal/mol]
in CCCO | -3.64

Clc1ccc(-c2ccc(Cl)c(Cl)c2Cl)c(Cl)c1Cl
Conditions | solvation free energy, 298 K [kcal/mol]
in O | -3.6

CC(Cl)Cl
Conditions | solvation free energy, 298 K [kcal/mol]
in CCCCCCCCO | -3.29
in ClC(Cl)(Cl)Cl | -3.78
in ClC(Cl)Cl | -4.11
in ClCCCl | -4.02
in O | -0.84
